Like-named read-outs stand apart in the source and are kept apart here.
Assays:
LOX IMVI (BRAFV600E) = experiment: Cell viability screen, CellTiter-Glo, 72 h; assay type: cell-based; details: Homo sapiens, ATP content/viability
Procedure: (§1) Figure 1: Optimization of Potency and Drug Properties of Small Molecule Inhibitors of Ras- and Raf-mutant Cells using Viability Screens. (A) Cell viability screen of ~300 small molecules in A549 (KRASG12S), LOX IMVI (BRAFV600E), and MelJuso (HRASG13D and NRASQ61L). Cells were treated with vehicle DMSO or increasing concentrations of small molecules in triplicate for 72 h and ATP content/viability was measured using CellTiter-Glo Luminescent Cell Viability Assay. The results shown for all cell viability figures are representative of at least two independent experiments. […] (C) Evolution of the Structure Activity Relationship (SAR) and IC50s of the first (68) and last (249C | lead due to drug-like properties) compounds in the screen. (D) 249C sensitivity for a panel of 53 cancer cell lines (including lung, pancreatic, breast, ovarian, hematological/liver, prostate, colorectal cancers, glioma and melanoma). […] (F) Quantitative whole proteome analysis of the effects of small molecule treatment by mass spectrometry. A549 cells were treated with DMSO or 68 (30 μM), 226C (1μM) or 249C (1μM) for 48 h prior to analysis of proteomes with TMT labeling followed by quantification relative to the DMSO control. […]

A549 (KRASG12S) = experiment: Cell viability screen, CellTiter-Glo, 72 h; assay type: cell-based; details: Homo sapiens, ATP content/viability
Procedure: as §1

MEFs KRAS G13D = experiment: Cell proliferation of Ras-less MEFs expressing human KRAS/BRAF; details: Mus musculus
Procedure: Cell proliferation assays of stable cell lines treated with V-ATPase inhibitors 249C and BafA1, HCQ analog (DC661), KRASG12C inhibitor (AMG510) and autophagy inducer (CMA). For each bar, n = 3. Representative of 3 biological replicates (mean ± SD). Two-sided t-test with no adjustments for multiple comparisons.
Logarithmically growing cells were plated in antibiotic-free medium supplemented with 2% fetal bovine serum at a density of 5,000 cells per well. The next day, cells were treated in triplicates with increasing doses of in-house small molecule inhibitor drugs and a DMSO vehicle control for 3 days and subsequently assessed for cell viability by measurement of ATP with CellTiter-Glo Luminescent Cell Viability Assay (Promega). Signal intensity was read on a Glomax™ 96 Microplate Luminometer (Promega) with GLOMAX software (version 1.9.3) and percent cell survival was calculated based on the reading of vehicle control cells set as 100% using Excel (2012) and GraphPad Prism (version 6)Each compound was tested a minimum of 2 times with n = 3. All cell proliferation assays (cancer cell lines or MEFs) were done in a similar way.

[1] = test system: MelJuso (HRASG13D and NRASQ61L); experiment: Cell viability screen, CellTiter-Glo, 72 h; assay type: cell-based, human; details: ATP content/viability
Procedure: as §1

hERG = hERG (Homo sapiens, UniProt Q12809); experiment: hERG fluorescence polarization assay; details: human
Chain of hERG (Q12809 whole entry): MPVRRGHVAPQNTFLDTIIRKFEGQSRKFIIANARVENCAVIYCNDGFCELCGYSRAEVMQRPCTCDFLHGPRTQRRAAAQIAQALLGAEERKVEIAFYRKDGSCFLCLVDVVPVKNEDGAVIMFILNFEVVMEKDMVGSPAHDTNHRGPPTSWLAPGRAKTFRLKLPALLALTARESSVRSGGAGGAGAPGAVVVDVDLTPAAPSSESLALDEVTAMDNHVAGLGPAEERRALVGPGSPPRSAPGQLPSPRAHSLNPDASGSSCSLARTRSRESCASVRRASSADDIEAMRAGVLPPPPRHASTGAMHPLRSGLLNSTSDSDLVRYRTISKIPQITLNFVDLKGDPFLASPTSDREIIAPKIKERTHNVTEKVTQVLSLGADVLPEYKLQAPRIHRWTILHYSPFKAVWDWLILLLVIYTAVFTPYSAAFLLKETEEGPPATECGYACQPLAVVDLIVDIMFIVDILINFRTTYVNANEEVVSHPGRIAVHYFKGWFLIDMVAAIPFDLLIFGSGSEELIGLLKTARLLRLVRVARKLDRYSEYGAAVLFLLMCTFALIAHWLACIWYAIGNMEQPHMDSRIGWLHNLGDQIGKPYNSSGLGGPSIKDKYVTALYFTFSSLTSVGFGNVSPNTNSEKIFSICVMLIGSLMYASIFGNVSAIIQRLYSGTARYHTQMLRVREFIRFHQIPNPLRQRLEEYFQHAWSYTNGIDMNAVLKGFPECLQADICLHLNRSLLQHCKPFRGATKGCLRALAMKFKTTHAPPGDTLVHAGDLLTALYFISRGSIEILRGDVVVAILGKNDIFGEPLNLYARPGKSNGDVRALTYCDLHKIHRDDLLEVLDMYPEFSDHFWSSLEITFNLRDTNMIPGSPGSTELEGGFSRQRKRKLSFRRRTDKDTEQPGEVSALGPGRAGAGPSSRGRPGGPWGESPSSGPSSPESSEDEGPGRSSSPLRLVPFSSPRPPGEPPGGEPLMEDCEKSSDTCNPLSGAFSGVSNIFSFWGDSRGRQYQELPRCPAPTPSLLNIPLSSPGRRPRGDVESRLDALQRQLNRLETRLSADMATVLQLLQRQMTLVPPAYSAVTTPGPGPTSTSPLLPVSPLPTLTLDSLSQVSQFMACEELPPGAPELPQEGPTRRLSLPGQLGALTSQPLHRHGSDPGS

[2] = Plasma concentration in mice; assay type: in vivo; details: female, athymic nude (NU/NU, Charles River strain # 088), mouse, intraperitoneal, 10 mg/kg, after 4 hours, read-out: maximum concentration (Cmax) in blood (or plasma)
Procedure: 5 × 10^6 A549 cells were subcutaneously injected into the lower left flank of 6–8-week old athymic nude female mice (Charles River strain # 088, homozygous NU/NU). To assess establishment of tumors, mice were examined 5 days post-inoculation and were randomly segregated into two treatment groups [vehicle control, 10 mg/kg 249C IP, n = 7 per group] and were treated twice daily with the drug in NPM or vehicle control (5% weight aqueous solution of carboxymethyl cellulose). Tumor volumes were calculated using the formula (L × W × H)/2 with recorded caliper measurements. Survival curves and statistical analyses were performed using Excel. Animals were maintained on a standard chow diet; 12:12 dark/light cycle and in group housing in hepa-filtered cages. All animal procedures were performed under IACUC approved protocols and guidelines. Animals from both groups were weighed every 3 days. Plasma concentration was measured from blood collected using standard and established protocols.

[3] = test system: panel of 53 cancer cell lines; experiment: 249C sensitivity in a panel of 53 cancer cell lines; assay type: cell-based; details: Homo sapiens, read-out: median IC50
Procedure: Figure 1: Optimization of Potency and Drug Properties of Small Molecule Inhibitors of Ras- and Raf-mutant Cells using Viability Screens. (A) Cell viability screen of ~300 small molecules in A549 (KRASG12S), LOX IMVI (BRAFV600E), and MelJuso (HRASG13D and NRASQ61L). Cells were treated with vehicle DMSO or increasing concentrations of small molecules in triplicate for 72 h and ATP content/viability was measured using CellTiter-Glo Luminescent Cell Viability Assay. The results shown for all cell viability figures are representative of at least two independent experiments. […] (F) Quantitative whole proteome analysis of the effects of small molecule treatment by mass spectrometry. A549 cells were treated with DMSO or 68 (30 μM), 226C (1μM) or 249C (1μM) for 48 h prior to analysis of proteomes with TMT labeling followed by quantification relative to the DMSO control. […]
The Cancer Cell Line Encyclopedia (CCLE, http://www.broadinstitute.org/ccle) was used to download somatic mutation data for over 1000 cancer cell lines [(CCLE_DepMap_18q3_maf_20180718.txt) from CCLE at https://depmap.org/portal/download/ (2018)][61]. We filtered the data to retain only mutations (single nucleotide variants, SNVs, and insertion deletions, indels) detected in 53 cell lines that were included in our MTS assays (Fig. 1). […] Genes with multiple mutations in the same cell line were only counted once. […]

CN1CCOC(CNC(=O)C2(C)C(c3ccc(Cl)o3)C(c3ccc(F)cc3F)=NN2c2ccc(F)cc2F)C1 (stereo not drawn) [Compound 249C]
IC50 (LOX IMVI (BRAFV600E)): 0.06 µM
IC50 (A549 (KRASG12S)): 0.073 µM
IC50 (MEFs KRAS G13D): 0.07 µM
IC50 ([1]; listed as 002-249C): 0.0219 µM
IC50 ([1]; Homo sapiens, MEL-JUSO): 0.022 µM
inhibition at 30 µM (hERG): 0%
Cmax [2]: 20 µM
IC50 ([3]; KRAS/HRAS/NRAS/BRAF mutant cells): 0.065 µM
IC50 ([3]; cells with no mutations in these genes): 0.365 µM
